Source: patent publication US20240000879A1, “HERBAL COMPOSITIONS WITH IMPROVED BIOAVAILABILITY” (priority 2017, published 2024)

Experiment: Herbal composition/SNAC oral rat pharmacokinetic (PK) study (Example 5)
Format: in vivo
Conditions: rats; for increase in AUC0-Tlast / increase in Cmax: oral, 50 mg/kg cannabis extract + 500 mg/kg SNAC; for time to reach the mean maximum plasma concentration (Tmax): single oral gavage
Protocol: Example 5. Summary of an herbal composition/SNAC oral rat pharmacokinetic (PK) study.
Methods. Animals were dosed on Day 1 and a series of blood samples were collected over a period of 4 hours post dose for pharmacokinetic evaluation. Animals were euthanized following collection of their last blood sample.

SMILES | increase in AUC0-Tlast [fold] | increase in Cmax [fold] | time to reach the mean maximum plasma concentration (Tmax) (high dose group (50 mg extract/kg + 500 mg SNAC/kg)) [hours post dose] | time to reach the mean maximum plasma concentration (Tmax) (low and mid dose groups (25 mg extract/kg + 250 or 500 mg SNAC/kg)) [hour post dose]
C=C(C)[C@@H]1CCC(C)=C[C@H]1c1c(O)cc(CCCCC)cc1O [CBD] | 22.1 | 14.2 | – | –
CCCCCc1cc(O)c2c(c1)OC(C)(C)[C@@H]1CCC(C)=C[C@@H]21 [THC] | 6.3 | 6.9 | 2 | 1
